Columns and labels:
SNU-C1 [1] = experiment: Cell mobility (transwell) of irradiated SNU-C1 cells; format: cell-based, human; conditions: SNU-C1, 10 Gy, 10 μM, 24 hours
Experimental: (§1) Cell mobility was measured using a 24 mm transwell with […]. After stabilizing the cells irradiated with 10 Gy of radiation for 24 hours, the cells were suspended in a medium and seeded in the upper chamber of the transwell, and the lower chamber was filled with a medium containing 10% fetal bovine serum (FBS) and 10 μM butyric acid (BA), ginsenosides Rh1, Rh2, Ro, Rb1, curcumin (CU), and sucralfate (SCF) either alone or in combination, and culturing was performed. After 24 hours of culture, the downside of the transwell was stained with crystal violet dye, and the stained cells were counted by observing them with an inverted microscope.

[2] = tested on: human dermal fibroblasts (HDF); experiment: Cell mobility (transwell) of irradiated human dermal fibroblasts; format: cell-based; conditions: 10 μM, alone or in combination
Experimental: as §1

HUVEC = experiment: Vascular endothelial cell tube formation after irradiation; format: cell-based, human; conditions: irradiated HUVEC, 10 μM, alone or in combination
Experimental: After irradiating human umbilical endothelial cells (HUVEC) with 10 Gy of radiation, the cells were seeded on a matrigel-coated u-slide, and were treated with 10 μM of curcumin (CU), butyric acid (BA), sucralfate (SCF), ginsenosides Rh1, Rh2, Rb1, or Ro either alone or in combination.
It was investigated whether a treatment with curcumin (CU), butyric acid (BA), sucralfate (SCF), and ginsenoside Rh1 (Rh1) alone or in combination restored the function of HUVEC cells damaged by radiation.

HCT116 [3] = experiment: Cell viability (Cell Counting Kit-8) of irradiated HCT116 cells; format: cell-based, human; conditions: HCT116, 10 Gy, 48 hours
Experimental: (§2) Human colon cancer cell lines (HCT116 and SNU-C1), a human dermal fibroblast cell line and a human keratinocyte cell line (HaCaT) were cultured in Dulbecco's modified eagles medium-high glucose (DMEM) containing 10% fetal bovine serum (FBS), 100 units/mL penicillin, and 100 μg/mL streptomycin. A Human umbilical vascular endothelial cell line (HUVEC) was cultured in a vascular cell basal medium (ATCC) containing Endothelial cell growth kit-VEGF (ATCC). All of the above cells were cultured in a 5% CO2 cell incubator at 37° C.
(§3) Cell viability test was performed using Cell Counting Kit-8. HCT116 and SNU-C1 cell lines, which are colon cancer cells, were seeded on 60 mm culture dishes and cultured, and then irradiated with 10 Gy of radiation. The cells were harvested, seeded on 96-well culture plates, and incubated, and then the cells were treated with butyric acid (BA), ginsenosides Rh1, Rh2, Ro, Rb1, and curcumin (CU) at concentrations of 5, 10, or 50 μM, respectively. After 48 hours, cell viability was analyzed using Cell Counting Kit-8 and a microplate reader.
(§4) In order to investigate the effects of curcumin (CU), butyric acid (BA), and ginsenoside on the decreased cell viability due to irradiation, HCT116 and SNU-C1 cells were treated with curcumin, butyric acid, ginsenoside Rh1, Rh2, Ro, or Rb1 at concentrations of 5, 10, and 50 μM, respectively, and the viability of each cell was measured (FIGS. 1 and 2).

SNU-C1 [4] = experiment: Cell viability (Cell Counting Kit-8) of irradiated SNU-C1 cells; format: cell-based, human; conditions: SNU-C1, 10 Gy, 48 hours
Experimental: as §2, §3, §4

HCT116 [5] = experiment: Cell mobility (transwell) of irradiated HCT116 cells; format: cell-based, human; conditions: HCT116, 10 Gy, 10 μM, 24 hours
Experimental: as §1
The experiment was conducted using the same manner as Experimental Example 3, except that the effective agents for treatment were a combination of curcumin, butyric acid, sucralfate, and ginsenoside.

skin of irradiated mice = conditions: cited from earlier work
[6] = tested on: intestinal epithelial cells; conditions: cited from earlier work
[7] = tested on: radiation proctitis model mouse; experiment: Radiation proctitis model mouse: pathological morphology of colon and rectal tissue (H&E); format: in vivo; conditions: 27 Gy, intrarectal, 14 days, vs irradiated group (IR)
Experimental: by administration of combination drug to proctitis model mouse C57BL/6 mice (5 weeks old, female) were irradiated with 27 Gy of radiation, and then divided into test groups as shown in Table 4 and FIG. 13. From the next day, samples prepared at concentrations as shown in Table 5 and FIG. 14 (formulated using the method of Example 1) were administered intrarectally at 2-3 day intervals for a total of 6 times (FIG. 16).
The efficacy of the treated samples was confirmed 14 days after the final radiation. In this case, except for the non-irradiated group (n=5), all test treatment groups were conducted with 7 mice per group. A flexible plastic tube was inserted into the rectum for administration, and a formulation containing approximately 50 μl of the compound was administered per mouse at a time.
In addition, pathological morphological analysis of the intestinal tissue was performed by observing the morphology of each treatment group through a microscope after performing H&E staining.
Specifically, the extracted organs were fixed in 10% formalin and paraffin blocks were created (STP120 Spin tissue Processor, Myr). Thereafter, sections were mounted on slides using a microtome (Finesse ME Microtome, Thermo Shandon), dried, deparaffinized and hydrated to create tissue slides. […]

[8] = 5 μM or 10 μM, vs irradiated group

CC(C)=CCC[C@](C)(O[C@@H]1O[C@H](CO[C@@H]2O[C@H](CO)[C@@H](O)[C@H](O)[C@H]2O)[C@@H](O)[C@H](O)[C@H]1O)[C@H]1CC[C@]2(C)[C@@H]1[C@H](O)C[C@@H]1[C@@]3(C)CC[C@H](O[C@@H]4O[C@H](CO)[C@@H](O)[C@H](O)[C@H]4O[C@@H]4O[C@H](CO)[C@@H](O)[C@H](O)[C@H]4O)C(C)(C)[C@@H]3CC[C@]12C [Rb1, ginsenoside Rb1]
cell mobility rate compared to the irradiated group (SNU-C1 [1]): significantly increased

CC(C)=CCC[C@](C)(O)[C@H]1CC[C@]2(C)C1[C@H](O)C[C@@H]1[C@@]3(C)CC[C@H](O)C(C)(C)[C@@H]3[C@@H](O[C@@H]3O[C@H](CO)[C@@H](O)[C@H](O)[C@H]3O)C[C@]12C (stereo partly shown) [Rh1, ginsenoside Rh1]
Mobility rate (%), average value [2]: 99%
Tube length (%), average value (HUVEC): 15%

CC(C)=CCC[C@](C)(O)[C@H]1CC[C@]2(C)[C@@H]1[C@H](O)C[C@@H]1[C@@]3(C)CC[C@H](O[C@@H]4O[C@H](CO)[C@@H](O)[C@H](O)[C@H]4O)C(C)(C)[C@@H]3CC[C@]12C [Rh2, ginsenoside Rh2]
cell viability compared to the irradiated group (HCT116 [3]; 50 μM): lower cell viabilities than the irradiated group
cell viability compared to the irradiated group (SNU-C1 [4]; 50 μM): lower cell viabilities than the irradiated group
cell mobility rate compared to the irradiated group (HCT116 [5]): highest cell mobility recovery rate

CC1(C)CC[C@]2(C(=O)O[C@@H]3O[C@H](CO)[C@@H](O)[C@H](O)[C@H]3O)CC[C@]3(C)C(=CC[C@@H]4[C@@]5(C)CC[C@H](O[C@@H]6O[C@H](C(=O)O)[C@@H](O)[C@H](O)[C@H]6O[C@@H]6O[C@H](CO)[C@@H](O)[C@H](O)[C@H]6O)C(C)(C)[C@@H]5CC[C@]43C)[C@@H]2C1 [Ro, ginsenoside Ro]
cell viability compared to the irradiated group (HCT116 [3]; 5 μM): lower cell viabilities than the irradiated group
cell viability compared to the irradiated group (SNU-C1 [4]; 5 μM): lower cell viabilities than the irradiated group

CCCC(=O)O [butyric acid, Butyric acid]
cell mobility rate compared to the irradiated group (HCT116 [5]): double increase
Mobility rate (%), average value [2]: 76%
Tube length (%), average value (HUVEC): 14%

COc1cc(/C=C/C(=O)CC(=O)/C=C/c2ccc(O)c(OC)c2)ccc1O [curcumin]
cell viability decreased by irradiation (HCT116 [3]; [8]): significantly increased
cell viability compared to the irradiated group (HCT116 [3]; 50 μM): lower cell viabilities than the irradiated group
cell viability decreased by irradiation (SNU-C1 [4]; [8]): significantly increased
cell viability compared to the irradiated group (SNU-C1 [4]; 50 μM): lower cell viabilities than the irradiated group
cell mobility rate compared to the irradiated group (HCT116 [5]): double increase
cell mobility rate compared to the irradiated group (SNU-C1 [1]): significantly increased
Mobility rate (%), average value [2]: 130%
Tube length (%), average value (HUVEC): 15%
skin damage (skin of irradiated mice; irradiated mice): restoring skin damage
expression of inflammatory cytokines and fibrogenic cytokines (skin of irradiated mice; skin of irradiated mice): reducing the expression

CC(C)=CCC[C@](C)(O[C@@H]1O[C@H](CO)[C@@H](O)[C@H](O)[C@H]1O)[C@H]1CC[C@]2(C)[C@@H]1[C@H](O)C[C@@H]1[C@@]3(C)CC[C@H](O[C@@H]4O[C@H](CO)[C@@H](O)[C@H](O)[C@H]4O[C@@H]4O[C@H](CO)[C@@H](O)[C@H](O)[C@H]4O)C(C)(C)[C@@H]3CC[C@]12C [ginsenoside Rd]
apoptosis induced by irradiation [6]: inhibit apoptosis

Sucralfate [reference compound]
Mobility rate (%), average value [2]: 91%
Tube length (%), average value (HUVEC): 14%
epithelium loss and crypt damage induced by irradiation [7]: recovered in all sample treatment groups except the sucralfate treatment group
